The text below walks through data of patent publication US6455585B1, “Esters derived from substituted phennyl-cyclohexyl compounds” (Vita Invest, S.A., priority 1998, dated 2002).

Data set [1] deals with Male Swiss mice. The data set can be described thus: Hot plate method, analgesic activity in mice. In kind it is in vivo. Conditions: for % response time increase on hot plate: 20 μmol/kg, oral adm., n = 20-40; for change in vivo at 15 mg/kg: Mus musculus, ip, 0.5 h, hot plate test, intraperitoneal adm., n = 20, read-out: % response time increase. How it is done:
The pharmacological activity of the products of the present invention was tested in vivo in several experimental models, which are known to evaluate the pain in animals.
The method that was used is described by Eddy N. B. and Leimbach D. (J. Pharm. Exp. Ther. 107: 385-393, 1953). The analgesic effect of the products was evaluated analysing the behaviour of the animals on a hot surface at 55° C.±1° C.
Male Swiss mice weighing 20-25 g were used. The compounds being tested were administered orally or intraperitoneally 1 hour o 30 minutes before starting the test, respectively.
The process consisted of placing the animals on the plate and keeping them in a Plexiglas cylinder 25 cm high and 21 cm […]. The time the animals took to jump off the hot surface was determined. The animals were selected before starting the test so that those that took longer than 10 seconds to jump off were not included in the group that would receive treatment.
30 minutes after administering the product being tested, the test was repeated and the maximum time it took the animals to jump off was again recorded.
The results are expressed as the […] of jump time increase calculated as follows: [formula]
In order to determine the duration of the analgesic effect of the orally administered products, the analgesic activity was evaluated on the hot plate 1, 3, 6, 8, and 24 hours after the administration of the product, as well as the control group which received treatment only with the vehicle. The base responses were evaluated at 30 and 5 minutes prior to administering the products.

The subject of data set [2] is Male Swiss mice. The data set can be described thus: Determination of the DL50 (acute single dose oral toxicity). Conditions: oral single administration, 14 days observation. The data set is classed as in vivo. How it is done: b) Determination of the DL50 in the Products.
(EUDRA/S/87/011, Single Dose Toxicity, European Directive 75/318/EEC) (ICH S4, Toxicity Studies, single dose and repeated dose, CPMP vol III Feb. 87, Single dose toxicity)
Male Swiss mice of the same batch weighing 20-25 g are used in order to estimate the acute toxicity of the products.
Prior to administering the products, the animals were forced to fast for 12 hours with no intake of food but free access to water. Several subgroups of 10 animals were randomly selected and orally given increasing doses of the products in single administration, after which they remained under observation for a period of 14 days with free access to water and food. Finally, the number of dead animals of each subgroup was quantified and the value of the DL50 was calculated (1-2).

As for `COc1cccc(C2(O)CCCCC2CN(C)C)c1` (single isomer, unassigned) [Tramadol, (1R, 2R or 1S, 2S)-2-[(dimethylamino)methyl]-1-(3-methoxyphenyl) cyclohexanol, reference compound], in data set [1], the “% response time increase on hot plate” value is listed as 87 ± 23% and the change in vivo at 15 mg/kg came to 218 ± 98%. Further, the “DL50 approx. Oral adm.” value in data set [2] was roughly 350 mg/kg. As for `CC(C)Cc1ccc(C(C)C(=O)Oc2cccc(C3(O)CCCCC3CN(C)C)c2)cc1` (stereo not drawn) [EXAMPLE 1, 3-(2-Dimethylaminomethyl-1-hydroxycyclohexyl)-phenyl 2-(4-Isobutyl-phenyl)-propionate], in data set [1], the “% response time increase on hot plate” value stood at 210 ± 88% and the change in vivo at 15 mg/kg is 568 ± 100%. The “DL50 approx. Oral adm.” value in data set [2] was roughly 900 mg/kg. For `COc1ccc2cc(C(C)C(=O)Oc3cccc(C4(O)CCCCC4CN(C)C)c3)ccc2c1` (stereo not drawn) [EXAMPLE 2, 3-(2-Dimethylaminomethyl-1-hydroxyyclohexyl)-phenyl 2-(6-Methoxy-naphthalen-2-yl)-propionate], the change in vivo at 15 mg/kg in data set [1] came out at 539 ± 50%. Still for that read-out and setting: with `CN(C)CC1CCCCC1(O)c1cccc(OC(=O)C2CCn3c(C(=O)c4ccccc4)ccc32)c1` (stereo not drawn) [EXAMPLE 3, 3-(2-Dimethylaminomethyl-1-hydroxycyclohexyl)-phenyl 5-Benzoyl-2,3-dihydro-1H-pyrrolizine-1-carboxylate] the figure was 416 ± 146%. On the same count and under the same terms, with `CC(C)Cc1ccc(C(C)C(=O)Oc2cccc(C3=C(CN(C)C)CCCC3)c2)cc1` (stereo not drawn) [EXAMPLE 4, 3-(2-Dimethylaminomethyl-cyclohex-1-enyl)-phenyl 2-(4-Isobutyl-phenyl)-propionate] the figure was 333 ± 134%. Same read-out and setting: the value for `COc1ccc2cc(C(C)C(=O)Oc3cccc(C4=C(CN(C)C)CCCC4)c3)ccc2c1` (stereo not drawn) [EXAMPLE 5, 3-(2-Dimethylaminomethyl-cyclohex-1-enyl)-phenyl 2-(6-Methoxy-naphthalen-2-yl)-propionate] was 356 ± 151%.

In the case of `CN(C)CC1CCCCC1(O)c1cccc(OC(=O)c2ccccc2O)c1` (stereo not drawn) [EXAMPLE 6, 3-(2-Dimethylaminomethyl-1-hydroxy-cyclohexyl)-phenyl (RR-SS)-2-hydroxybenzoate], in data set [1], the “% response time increase on hot plate” value was determined as 248 ± 72% and the change in vivo at 15 mg/kg came out at 546 ± 63%. Further, the “DL50 approx. Oral adm.” value in data set [2] was roughly 550 mg/kg. Regarding `CN(C)CC1=C(c2cccc(OC(=O)c3ccccc3O)c2)CCCC1` [EXAMPLE 7, 3-(2-Dimethylaminomethyl-cyclohex-1-enyl)-phenyl 2-Hydroxybenzoate], the change in vivo at 15 mg/kg in data set [1] was found to be 634 ± 42%.

With `CN(C)CC1CCCCC1(O)c1cccc(OC(=O)c2ccccc2OC(=O)N(C)C)c1` (stereo not drawn) [EXAMPLE 8, 3-(2-Dimethylaminomethyl-1-hydroxy-cyclohexyl)-phenyl (RR-SS)-2-dimethylcarbamoyloxy-benzoate], the change in vivo at 15 mg/kg in data set [1] is 327 ± 65%.
